Reference: patent publication US20210002712A1, “PHOSPHATIDIC ACID SENSOR” (NATIONAL UNIVERSITY CORPORATION CHIBA UNIVERSITY, priority 2019, published 2021)

Tests used:
EGFP-DGKγ [1] = target: T1, EGFP-DGKγ (Homo sapiens, UniProt P49619); experiment: PMA-induced translocation of EGFP-DGKγ in COS-7 cells; format: cell-based; conditions: 1 μM PMA for 30 min
T1 construct: expressed in transfected cells; host or cells: COS-7
Experimental: (§1) FIGS. 19 and 20. […] Representative data from three independent experiments are shown. Scale bars, 20 μm. FIG. 20.
(§2) COS-7 cells were maintained in Dulbecco's modified Eagle's medium supplemented with 10% fetal bovine serum, 100 units/ml penicillin, and 100 μg/ml streptomycin at 37° C. in an atmosphere containing 5% CO2. Cells were transiently transfected using PolyFect reagent as described by the manufacturer.
(§3) The cells were then fixed in 4% paraformaldehyde. The coverslips were mounted using Vectashield. […] Images were acquired using FV-10 ASW software.

[2] = Liposome cosedimentation assay, 18:1/18:1-PA liposomes; format: binding
Experimental: FIG. 1. A schematic architecture of α-Syn and its deletion mutants. FIG. 2. The purified SUMO-tagged-α-Syn and its deletion mutant protein (2.5 μM) were incubated with 18:1/18:1-PA or 18:1/18:1-PS liposomes (PA or […]: 150 μM) and then separated by ultracentrifugation. SDS-PAGE (15%) was performed and separated proteins were stained with Coomassie Brilliant Blue. The positions of α-Syn and its mutants are indicated with arrow heads. The amounts of protein in the supernatant (S) and precipitant (P) were quantified by densitometry using ImageJ software. Binding activity was calculated as the percentage of the precipitate band intensity compared to the total band intensities. Values are presented as the mean±S.D. of four independent experiments. **P<0.01 versus the 18:1/18:1-PS liposome.
(§4) FIG. 3. The purified SUMO-tagged-α-Syn-N protein (2.5 μM) was incubated with control (PC and Chol alone), 16:0/16:0-PA, 16:0/18:1-PA, 18:1/18:1-PA, or 18:0/18:0-PA liposomes (PA: 150 μM) and then separated by ultracentrifugation. SDS-PAGE (15%) was performed and separated proteins were stained with Coomassie Brilliant Blue. The position of α-Syn-N is indicated with an arrow head.
(§5) FIG. 4. The amounts of protein in the supernatant (S) and precipitant (P) were quantified by densitometry using ImageJ software. Binding activity was calculated as the percentage of the precipitate band intensity compared to the total band intensities. Values are presented as the mean±S.D. of three independent experiments. #P<0.05, ##P<0.01, ###P<0.005 versus the 18:1/18:1-PA-liposome, *P<0.05, ***P<0.005 versus the control liposome.
FIG. 5. The purified SUMO-tagged-α-Syn protein (0.1 μM) was incubated with 18:1/18:1-PA liposomes of the indicated concentrations (0-20 μM) and then separated by ultracentrifugation. SDS-PAGE (15%) was performed and separated proteins were detected with silver staining. The position of α-Syn-N is indicated with an arrow head.
FIG. 6. The amounts of protein in the precipitant were quantified by densitometry using ImageJ software. Binding activity was calculated as the percentage of the precipitate band intensity compared to the total band intensities (Input). Values are presented as the mean±S.D. of four independent experiments. The Kd was determined using GraphPad Prism 8 (Dissociation-One phase exponential decay).
(§6) FIG. 7. The purified SUMO-tagged-α-Syn protein (0.1 μM) was incubated with 18:1/18:1-PA, 18:1/18:1-PS, 18:1/18:1-PI(4,5)P2, 18:1/18:1-PE and d18:1/18:1-C1P liposomes (20 μM) and then separated by ultracentrifugation. SDS-PAGE (15%) analysis was performed and separated proteins were detected with silver staining. The position of α-Syn-N is indicated with an arrow head.
(§7) FIG. 8. The amounts of protein in the precipitant were quantified by densitometry using ImageJ software. The PA binding activity of α-Syn-N was set to 100%. Values are presented as the mean±S.D. of three independent experiments. ***P<0.005 versus 18:1/18:1-PA liposome.
(§8) The following lipid mixtures were used: the control liposome: Chol (50 mol %) and 16:0/18:1-PC (50 mol %); and the PA liposome: Chol (50 mol %), 16:0/18:1-PC (35 mol %) and each PA species (15 mol %). The combined dried lipid mixture was resuspended in HEPES buffer. Then, the lipid mixture was vortexed for 1 min. Liposome formation was induced by sonication at 75° C. The purified SUMO-tagged α-Syn and its deletion mutants (2.5 μM) were dissolved in HEPES buffer and incubated with the control or PA-containing liposomes at room temperature for 1 h. Then, the samples were centrifuged at 200,000 g at 4° C. for 1 h. The precipitant was dissolved in HEPES buffer. The supernatant and pellet were analyzed by SDS-PAGE followed by Coomassie Brilliant Blue and silver staining. Quantitative densitometry was performed using ImageJ software. Since the lipid forms a bilayer, half of the actual concentration was considered.

[3] = Liposome cosedimentation assay, other PA molecular species; format: binding; conditions: protein 2.5 μM; PA 150 μM
Experimental: as §4, §5
The following lipid mixtures were used: the control liposome: Chol (50 mol %) and 16:0/18:1-PC (50 mol %); and the PA liposome: Chol (50 mol %), 16:0/18:1-PC (35 mol %) and each PA species (15 mol %). The combined dried lipid mixture was resuspended in HEPES buffer. Then, the lipid mixture was vortexed for 1 min. Liposome formation was induced by sonication at 75° C. […] The supernatant and pellet were analyzed by SDS-PAGE followed by Coomassie Brilliant Blue and silver staining. Quantitative densitometry was performed using ImageJ software. […]

[4] = Liposome cosedimentation assay, PI(4,5)P2 liposomes; format: binding; conditions: protein 0.1 μM; liposomes 20 μM
Experimental: as §6, §7
as §8, with “Then, the samples were centrifuged at 200,000 g at 4° C. for 1 h. The precipitant was dissolved in HEPES buffer.” left out, “Since the lipid forms a bilayer, half of the actual concentration was considered.” left out

[5] = Liposome cosedimentation assay, PS liposomes; format: binding; conditions: protein 0.1 μM; liposomes 20 μM
Experimental: as §6, §7
as §8, with “Then, the samples were centrifuged at 200,000 g at 4° C. for 1 h. The precipitant was dissolved in HEPES buffer.” left out, “Since the lipid forms a bilayer, half of the actual concentration was considered.” left out

[6] = Liposome cosedimentation assay, PE and C1P liposomes; format: binding; conditions: protein 0.1 μM; liposomes 20 μM
Experimental: as §6, §7
as §8, with “Then, the samples were centrifuged at 200,000 g at 4° C. for 1 h. The precipitant was dissolved in HEPES buffer.” left out, “Since the lipid forms a bilayer, half of the actual concentration was considered.” left out

[7] = Lipid overlay assay, PA spot; format: binding; conditions: GST-tagged protein 20 nM; 16:0/16:0-glycerolipids, 100 pmol
Source text: (§9) FIG. 9. Equimolar amounts (100 pmol) of various lipids were spotted onto nitrocellulose membranes as indicated. Acyl chains of these glycerolipids and sphingolipids are C16:0 (Echelon Biosciences).
(§10) FIGS. 10 and 12. The blots were scanned and quantified using ImageJ software. The PA binding activity (spot intensity) of α-Syn-N was set to 100%. Values are presented as the mean±S.D. of three independent experiments. ***P<0.005 versus PA.
(§11) FIG. 27. Equimolar amounts (500 pmol) of 18:1/18:1-PA, 18:1/18:1-PC, 18:1/18:1-PE, 18:1/18:1-PG), 18:1/18:1-PS, 18:1/18:1-PI and 18:1/18:1-PI(4,5)P2 were spotted onto nitrocellulose membranes as indicated and incubated with purified GST-tagged-α-Syn-N(20 nM). Lipid-bound proteins were detected by an anti-GST antibody.
(§12) FIG. 28. The blots were scanned and quantified using ImageJ software. The PA binding activity (spot intensity) of α-Syn-N was set to 100%. Values are presented as the mean±S.D. of three independent experiments. ***P<0.005 versus 18:1/18:1-PA.
(§13) Three hundred picomoles of the indicated lipids were spotted onto a nitrocellulose membrane. Membrane Lipid Strip was also used. The membranes were subjected to blocking with 1% skim milk in Tris-buffered saline, pH 7.4, for 1 h at room temperature. […] Quantitative densitometry was performed using ImageJ software.

[8] = Lipid overlay assay, other lipids; format: binding; conditions: GST-tagged protein 20 nM; 100 pmol lipids
Source text: as §9, §10, §11, §12, §13

[9] = Lipid overlay assay, PA versus LPA and C1P; format: binding; conditions: GST-tagged protein 20 nM; 300 pmol lipids
Experimental: FIG. 11. Equimolar amounts (300 pmol) of 18:1/18:1-PA, 18:1-LPA, and d18:1/18:1-C1P were spotted onto nitrocellulose membranes as indicated. The membranes were incubated with purified GST-tagged-α-Syn-N(20 nM). Lipid-bound proteins were detected by an anti-GST antibody.
as §10
Three hundred picomoles of the indicated lipids were spotted onto a nitrocellulose membrane. Membrane Lipid Strip was also used. The membranes were subjected to blocking with 1% skim milk in Tris-buffered saline, pH 7.4, for 1 h at room temperature. After blocking, 10 ml of 3% bovine serum albumin in Tris-buffered saline, pH 7.4, containing purified GST alone or GST-α-Syn-N (final concentration, 20 nM) was added to the membranes. The membranes were then incubated for 1 h at room temperature. Next, the membranes were incubated with an anti-GST antibody, followed by incubation with a peroxidase-conjugated goat anti-rabbit IgG antibody. Finally, lipid-bound proteins were visualized using an ECL Western blotting detection system. Quantitative densitometry was performed using ImageJ software.

COS-7 cells = experiment: Subcellular localization of the sensor without PA-generating enzyme in COS-7 cells; format: cell-based; conditions: absence of PA-generating enzyme
Experimental: (§14) FIGS. 13 to 16. […] After 24 h of transfection, the cells were fixed and imaged. Representative data from three independent experiments are shown. Scale bars, 20 μm.
(§15) FIG. 29. Either EGFP alone or EGFP-DGKβ was coexpressed with the DsRed monomer alone, DsRed monomer-Spo20p-PABD or DsRed monomer-PDE4A1-PABD in COS-7 cells as indicated. After 24 h of transfection, the cells were fixed and imaged. Representative data from three independent experiments are shown. Scale bars, 20 μm.
as §2, §3

EGFP-DGKβ = experiment: Colocalization with EGFP-DGKβ in COS-7 cells; format: cell-based; conditions: 24 h after transfection
Experimental: as §14
FIG. 14. […] FIG. 15. EGFP-DGKβ-WT was coexpressed with DsRed monomer-α-Syn-N in COS-7 cells. […] Representative data from three independent experiments are shown. Scale bars, 20 μm.
as §15, §2, §3

Myr-AcGFP-DGKζ = experiment: Colocalization with Myr-AcGFP-DGKζ in COS-7 cells; format: cell-based; conditions: trans Golgi network and plasma membrane
Experimental: FIG. 17. […] After 24 h of transfection, the cells were fixed and imaged. Representative data from three independent experiments are shown. Scale bars, 20 μm.
FIGS. 32 and 33. Either Myr-AcGFP-DGKζ alone or Myr-AcGFP-DGKζ-KD was coexpressed with the DsRed monomer alone or DsRed monomer-Spo20p-PABD in COS-7 cells as indicated. After 24 h of transfection, the cells were fixed and imaged. Representative data from three independent experiments are shown. Scale bars, 20 μm.
as §2, §3

EGFP-DGKγ [10] = experiment: Colocalization with EGFP-DGKγ in PMA-stimulated COS-7 cells; format: cell-based; conditions: 1 μM PMA 30 min
Experimental: as §1, §2, §3

EGFP-PLD2 = experiment: Colocalization with EGFP-PLD2 in COS-7 cells; format: cell-based
Experimental: FIGS. 21 and 22. […] Representative data from three independent experiments are shown. Scale bars, 20 μm.
as §2, §3

PIP5K1A = experiment: Colocalization with EGFP-PIP5K1A in COS-7 cells; format: cell-based
Experimental: FIG. 23. Either EGFP alone or EGFP-PIP5K1A was coexpressed with either the DsRed monomer alone, DsRed monomer α-Syn-N or DsRed monomer PLCδ1-PHD in COS-7 cells as indicated. After 24 h of transfection, the cells were fixed and imaged. Representative data from three independent experiments are shown. Scale bars, 20 μm.
FIG. 24. The localization of EGFP-PIP5K1A, DsRed monomer-α-Syn-N and DsRed monomer-PLCδ1-PHD was quantified using ImageJ software.
as §2, §3

PLD2 = PLD2 (Homo sapiens, UniProt O14939); conditions: COS-7 cells, 750 nM for 4 h
Sequence of PLD2 (O14939 whole entry): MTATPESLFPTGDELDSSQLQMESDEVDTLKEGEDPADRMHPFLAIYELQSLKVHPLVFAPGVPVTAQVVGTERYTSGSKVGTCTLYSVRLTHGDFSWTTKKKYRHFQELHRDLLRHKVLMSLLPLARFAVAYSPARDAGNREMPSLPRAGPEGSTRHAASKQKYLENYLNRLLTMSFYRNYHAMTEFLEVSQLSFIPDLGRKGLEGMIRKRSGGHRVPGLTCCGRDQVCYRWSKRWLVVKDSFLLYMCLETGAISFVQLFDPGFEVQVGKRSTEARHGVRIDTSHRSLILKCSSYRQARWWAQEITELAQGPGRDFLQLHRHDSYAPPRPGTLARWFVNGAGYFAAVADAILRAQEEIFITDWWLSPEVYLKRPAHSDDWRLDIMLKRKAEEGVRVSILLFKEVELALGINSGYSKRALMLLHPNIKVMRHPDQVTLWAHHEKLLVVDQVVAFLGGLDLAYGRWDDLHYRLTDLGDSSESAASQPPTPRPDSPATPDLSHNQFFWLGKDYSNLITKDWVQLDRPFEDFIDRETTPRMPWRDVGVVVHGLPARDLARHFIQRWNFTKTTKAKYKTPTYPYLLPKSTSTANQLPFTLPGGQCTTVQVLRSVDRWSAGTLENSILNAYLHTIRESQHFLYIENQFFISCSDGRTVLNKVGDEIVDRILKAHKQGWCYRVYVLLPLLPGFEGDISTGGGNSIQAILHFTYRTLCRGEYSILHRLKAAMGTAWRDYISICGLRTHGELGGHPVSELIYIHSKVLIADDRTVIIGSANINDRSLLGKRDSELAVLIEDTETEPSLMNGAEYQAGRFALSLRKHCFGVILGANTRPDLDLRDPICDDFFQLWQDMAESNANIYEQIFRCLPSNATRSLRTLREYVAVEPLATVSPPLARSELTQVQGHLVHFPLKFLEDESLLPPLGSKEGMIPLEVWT
Experimental: EGFP-PLD2 was coexpressed with either the DsRed monomer alone or DsRed monomer α-Syn-N in COS-7 cells as indicated. After 24 h of transfection, the cells were incubated with 750 nM FIPI in growth medium for 4 h and then fixed and imaged. […] The localization of EGFP-PLD2-WT and DsRed monomer α-Syn-N was quantified using ImageJ software. COS-7 cells were grown and transfected as described in the above section. […] The cells were then fixed in 4% paraformaldehyde. The coverslips were mounted using Vectashield. Fluorescence images were acquired using an Olympus FV1000-D (IX81) confocal laser scanning microscope. GFP fluorescence was excited at 488 nm, and DsRed fluorescence was excited at 543 nm. Images were acquired using FV-10 ASW software.

T1 sequence (P49619 whole entry): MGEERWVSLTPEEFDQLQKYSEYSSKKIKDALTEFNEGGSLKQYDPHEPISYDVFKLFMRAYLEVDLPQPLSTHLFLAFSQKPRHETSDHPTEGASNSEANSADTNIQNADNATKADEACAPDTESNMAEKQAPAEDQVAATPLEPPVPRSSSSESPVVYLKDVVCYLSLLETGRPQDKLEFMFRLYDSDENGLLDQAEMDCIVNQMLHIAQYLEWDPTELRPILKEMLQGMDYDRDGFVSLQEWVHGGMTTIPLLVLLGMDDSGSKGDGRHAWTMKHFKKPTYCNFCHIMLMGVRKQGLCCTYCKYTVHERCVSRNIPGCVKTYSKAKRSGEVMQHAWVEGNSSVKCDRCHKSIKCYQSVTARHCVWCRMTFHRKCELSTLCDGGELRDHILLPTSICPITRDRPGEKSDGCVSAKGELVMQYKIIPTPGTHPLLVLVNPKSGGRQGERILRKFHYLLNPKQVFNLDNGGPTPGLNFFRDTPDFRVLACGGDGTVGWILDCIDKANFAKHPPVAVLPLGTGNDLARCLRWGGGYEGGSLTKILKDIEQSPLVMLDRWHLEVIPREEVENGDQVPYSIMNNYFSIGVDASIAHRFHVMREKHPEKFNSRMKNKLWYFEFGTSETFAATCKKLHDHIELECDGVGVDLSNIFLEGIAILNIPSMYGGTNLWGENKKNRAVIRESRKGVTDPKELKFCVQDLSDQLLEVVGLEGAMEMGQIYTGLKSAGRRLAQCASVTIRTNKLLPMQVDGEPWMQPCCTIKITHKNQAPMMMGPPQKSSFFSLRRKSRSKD

Compound: CCCCCCCCCCCCCC(=O)O[C@@H]1[C@@H](C)[C@@]2(O)[C@@H](C=C(CO)C[C@]3(O)C(=O)C(C)=C[C@@H]23)[C@@H]2C(C)(C)[C@]12OC(C)=O [PMA, phorbol 12-myristate 13-acetate]
- translocation of EGFP-DGKγ (EGFP-DGKγ [1]): led to the translocation of EGFP-DGKγ from the cytoplasm to the plasma membrane

Compound: α-Syn-N: N-terminal region of mouse α-synuclein (Met1-Lys60), SEQ ID NO: 2; used 6×His-SUMO-, GST- or DsRed monomer-tagged
- PA-binding activity (18:1/18:1-PA liposomes) ([2]; 6×His-SUMO-tagged protein 2.5 μM, PA 150 μM): most strongly bound
- Kd ([2]; protein 0.1 μM, 18:1/18:1-PA liposomes 0-20 μM, read-out: dissociation constant (Kd) for PA (18:1/18:1-PA)): 6.6 µM
- binding to 18:1/18:1-PA liposomes compared with other acidic glycerolipids ([2]; protein 0.1 μM, liposomes 20 μM): most strongly bound
- binding to 16:0/16:0- and 16:0/18:1-PA liposomes [3]: considerably interacted
- binding to PI(4,5)P2 liposomes [4]: only weak signals were detected
- binding to PS liposomes [5]: no signals were observed
- binding to PE or C1P liposomes [6]: did not substantially interact
- binding to PA spot [7]: most strongly bound
- binding to other lipid spots [8]: only weak or no signals were detected
- binding of PA relative to LPA and C1P [9]: significantly stronger binding
- subcellular localization (COS-7 cells): broad distribution in the cytoplasm and the nucleus
- colocalization with EGFP-DGKβ (EGFP-DGKβ): clearly colocalized
- colocalization with Myr-AcGFP-DGKζ (Myr-AcGFP-DGKζ): markedly colocalized
- colocalization with EGFP-DGKγ at the plasma membrane (EGFP-DGKγ [10]): markedly colocalized
- colocalization with EGFP-PLD2 (EGFP-PLD2): clearly colocalized
- colocalization with EGFP-PIP5K1A (PIP5K1A): did not codistribute

Compound: O=C(NCCN1CCC(n2c(=O)[nH]c3ccccc32)CC1)c1cc2cc(F)ccc2[nH]1 [FIPI, 5-fluoro-2-indolyl deschlorohalopemide]
- effect on colocalization of EGFP-PLD2 and DsRed-α-Syn-N (PLD2): markedly attenuated their colocalization
